Target: T1, glucan synthase (GS) prepared from Candida albicans MY1055 (Candida albicans, UniProt O13428)
T1 construct: Extraction of GS activity from membranes was performed at a protein concentration of 5 mg/mL in extraction buffer; endogenous in cells; host or cells: Candida albicans MY1055 (membranes, detergent extract, product entrapment)
Assay: Glucan synthase inhibition (polymerization assay, 96-well, 3H-UDPG incorporation)
Type: biochemical
Settings: glucan synthase from C. albicans MY1055
Procedure: The in vitro evaluation of glucan synthase inhibitory activity of compounds was measured in a polymerization assay in 96-well format. Each well contained 100 μL of ^3H-UDPG at 0.5 mM (6000 to 8000 dpm/nmol), 50 mM HEPES pH 7.5 (Sigma), 10% w/v glycerol (Sigma), 1.5 mg/mL bovine serum albumin (Sigma A 9647. Lot 44H0190), 25 mM KF (Fisher), 1 mM EDTA (Gibco Ultrapure), 25 μM GTP-γ-S, enzyme sufficient to give 3 to 6 nmoles incorporation during the 60 min incubation at 22° C., and test compound added from wells in 3-fold serial dilutions in 100% DMSO (1 μL/well). The reaction was stopped by the addition of 100 μL of 20% trichloroacetic acid. Plates were chilled for a minimum of 10 min, and precipitated glucan collected by filtration on GF/C plates (Packard Unifilter®-96), washed with 5 cycles of water (about 1 mL/well each cycle) using a Packard Filtermate Harvester. 40 μL/well scintillation fluid (Packard Ultima Gold TM-XR) was added and the sealed plates counted in a Wallac Beta counter in top-counting mode at an efficiency of approximately 40%.
Stock solutions were stored at 10 mg/mL in DMSO at −20° C. For each new enzyme preparation, the initial titration performed started at 1 mg/mL, which was prepared by making a 10-fold dilution in DMSO (5 μL to 50 μL). 40 μL of this stock was placed in column 12 of a round-bottomed 96-well microtiter plate. 40 μL DMSO was added to columns 1 to 11 in the same row and ten 3-fold serial dilutions performed, by transferring 20 μL from column 12 to column 11 etc., with 4 mixings before each transfer. No test compound was transferred to from column 2 to column 1. Duplicate aliquots of 1 μL of all 12 dilutions were then transferred to the side walls of a 96-well Bioblock 1.1 mL plate (Fisherbrand) to create two rows.
The results were tabulated and a standard plate background was subtracted and the net count transpose-pasted into a Prism file, with final compound concentrations used in ng/mL. Graphs were created in Prism software, using the average of two determinations, and using Prism's curve fitting program (sigmoidal dose response non-linear regression).
Routine analysis was performed with glucan synthase (GS) prepared from Candida albicans MY1055 by the following procedure: MY1055 was grown in 10 liters YPD medium (10 g yeast extract, 20 g tryptone, 20 g glucose per liter) with vigorous shaking at 30° C., to early stationary phase. Cells were harvested by centrifugation, the pellet was washed and frozen at −70° C. until breakage. Thawed pellets were shaken with an equal volume of breakage buffer (50 mM HEPES pH 7.4, 10% glycerol, 1 mM EDTA, 1 mM PMSF, 1 mM DTT) and 4 times their weight of 0.5 mm acid washed glass beads for 2 hours at 4° C. Extent of breakage was assessed visually at 40× magnification. For C. parapsilosis strains, shaking was extended to 3 hours to maximize breakage. After low speed centrifugation to remove cell debris, the supernatant was centrifuged at 100,000×g for 60 min. to separate membranes plus ribosomes from cytoplasmic components. Membranes were further washed two additional times with breakage buffer using the same centrifugation conditions and finally suspended in breakage buffer at 25 to 30 mg/mL protein (Biorad) for storage at −70° C. Extraction of GS activity from membranes was performed at a protein concentration of 5 mg/mL in extraction buffer (50 mM NaPO4 pH 7.5, 0.1 M KCl, 0.1M Na citrate, 20% glycerol, 5 μM GTP-γ-S, 1 mM DTT, 1 mM PMSF, 3 μg/mL pepstatin) plus 0.25% W1 by gentle mixing at 4° C. for 60 min, followed by centrifugation at 100,000×g for 60 min. After centrifugation, clear supernatant was removed from a pellet consisting of a hard layer usually with small amounts of gelatinous unextracted membranes above it. […]

T1 sequence (O13428 1-1897): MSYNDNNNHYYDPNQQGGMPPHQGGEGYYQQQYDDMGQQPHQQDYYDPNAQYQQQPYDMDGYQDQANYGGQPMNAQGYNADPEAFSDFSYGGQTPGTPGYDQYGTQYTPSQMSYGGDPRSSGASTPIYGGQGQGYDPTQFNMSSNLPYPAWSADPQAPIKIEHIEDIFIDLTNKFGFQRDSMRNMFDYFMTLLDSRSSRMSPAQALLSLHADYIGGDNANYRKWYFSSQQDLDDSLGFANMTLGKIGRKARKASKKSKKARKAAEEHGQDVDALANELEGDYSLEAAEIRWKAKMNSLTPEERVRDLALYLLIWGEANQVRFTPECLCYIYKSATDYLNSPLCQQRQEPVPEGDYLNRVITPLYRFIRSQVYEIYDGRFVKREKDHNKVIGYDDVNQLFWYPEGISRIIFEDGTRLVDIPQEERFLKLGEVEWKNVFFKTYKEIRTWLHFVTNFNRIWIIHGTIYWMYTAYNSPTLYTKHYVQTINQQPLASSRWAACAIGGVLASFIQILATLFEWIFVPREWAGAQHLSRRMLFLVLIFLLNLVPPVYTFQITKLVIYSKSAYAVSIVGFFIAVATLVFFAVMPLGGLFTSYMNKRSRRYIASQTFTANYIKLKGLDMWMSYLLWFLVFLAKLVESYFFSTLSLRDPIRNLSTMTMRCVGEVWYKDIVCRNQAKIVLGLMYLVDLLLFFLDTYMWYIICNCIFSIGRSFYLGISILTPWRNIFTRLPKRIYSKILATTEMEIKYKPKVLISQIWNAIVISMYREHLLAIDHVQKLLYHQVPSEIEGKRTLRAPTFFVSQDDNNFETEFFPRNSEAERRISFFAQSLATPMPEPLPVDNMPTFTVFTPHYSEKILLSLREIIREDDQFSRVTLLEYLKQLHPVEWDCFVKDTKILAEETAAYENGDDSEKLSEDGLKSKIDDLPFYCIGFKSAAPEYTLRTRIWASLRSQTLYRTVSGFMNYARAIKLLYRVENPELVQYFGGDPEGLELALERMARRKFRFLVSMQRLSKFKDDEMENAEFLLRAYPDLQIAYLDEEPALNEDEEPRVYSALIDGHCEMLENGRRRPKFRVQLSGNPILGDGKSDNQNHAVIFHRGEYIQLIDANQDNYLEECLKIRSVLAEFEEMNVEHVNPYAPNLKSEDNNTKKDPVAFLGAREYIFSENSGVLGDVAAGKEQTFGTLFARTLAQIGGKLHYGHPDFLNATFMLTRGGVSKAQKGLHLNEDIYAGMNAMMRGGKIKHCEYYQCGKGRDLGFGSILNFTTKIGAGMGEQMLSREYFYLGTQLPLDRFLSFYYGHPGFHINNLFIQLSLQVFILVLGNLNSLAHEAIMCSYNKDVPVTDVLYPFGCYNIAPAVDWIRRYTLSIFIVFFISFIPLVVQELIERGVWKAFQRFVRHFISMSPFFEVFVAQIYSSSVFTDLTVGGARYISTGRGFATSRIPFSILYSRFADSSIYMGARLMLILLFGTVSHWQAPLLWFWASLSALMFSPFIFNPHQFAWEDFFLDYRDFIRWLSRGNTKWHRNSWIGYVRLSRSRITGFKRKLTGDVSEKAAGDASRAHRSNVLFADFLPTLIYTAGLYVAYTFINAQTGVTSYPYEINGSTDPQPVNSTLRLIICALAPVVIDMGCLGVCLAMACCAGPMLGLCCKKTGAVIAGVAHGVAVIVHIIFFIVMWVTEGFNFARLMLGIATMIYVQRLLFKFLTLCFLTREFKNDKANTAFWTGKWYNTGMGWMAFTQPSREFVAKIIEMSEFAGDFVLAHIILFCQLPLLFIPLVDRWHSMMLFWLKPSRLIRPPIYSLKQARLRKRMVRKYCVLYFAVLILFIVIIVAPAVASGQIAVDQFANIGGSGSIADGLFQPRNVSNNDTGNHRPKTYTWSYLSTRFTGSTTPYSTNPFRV
T1 sequence (O42825 whole entry partner): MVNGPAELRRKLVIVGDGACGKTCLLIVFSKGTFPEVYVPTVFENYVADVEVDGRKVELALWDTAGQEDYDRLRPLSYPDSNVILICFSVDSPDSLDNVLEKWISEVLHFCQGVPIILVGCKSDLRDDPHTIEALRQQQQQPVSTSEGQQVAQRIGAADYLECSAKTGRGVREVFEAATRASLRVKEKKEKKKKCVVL

SMILES	IC50 [nM]
COCC(CO[C@H]1[C@H](OC(C)=O)C[C@@]23COC[C@]1(C)[C@@H]2CC[C@H]1C3=CC(=O)[C@@]2(C)[C@H](C(=O)O)[C@@](C)([C@H](C)C(C)C)CC[C@]12C)N(C)C (stereo partly drawn) [Example 65, (1S,2R,3R,4aR,6aS,7R,8R,10aR,10bR,12aR)-3-(acetyloxy)-2-(2-dimethylamino-3-methoxypropoxy)-8-[(1R)-1,2-dimethylpropyl]-1,6a,8,10a-tetramethyl-6-oxo-1,3,4,6,6a,7,8,9,10,10a,10b,11,12,12a-tetradecahydro-2H-1,4a-(methanooxymethano)chrysene-7-carboxylic acid]	161
CC(=O)O[C@@H]1C[C@@]23COC[C@@](C)([C@@H]2CC[C@H]2C3=CC(=O)[C@@]3(C)[C@H](C(=O)O)[C@@](C)([C@H](C)C(C)C)CC[C@]23C)[C@H]1OCC(CN)CN(C)C (stereo partly drawn) [Example 68, (1S,2R,3R,4aR,6aS,7R,8R,10aR,10bR,12aR)-3-(acetyloxy)-2-(2-aminomethyl-3-dimethylaminopropoxy)-8-[(1R)-1,2-dimethylpropyl]-1,6a,8,10a-tetramethyl-6-oxo-1,3,4,6,6a,7,8,9,10,10a,10b,11,12,12a-tetradecahydro-2H-1,4a-(methanooxymethano)chrysene-7-carboxylic acid]	205
CC(=O)O[C@@H]1C[C@@]23COC[C@](C)([C@@H]2CC[C@H]2C3=CC(=O)[C@@]3(C)[C@H](C(=O)O)[C@@](C)([C@H](C)C(C)C)CC[C@]23C)[C@H]1OCC(C)NCc1ccc(CO)o1 (stereo partly drawn) [Example 71, (1S, 2R, 3R, 4aR, 6aS, 7R, 8R, 10aR, 10bR, 12aR)-3-(acetyloxy)-2-{2-[(5-hydroxymethylfuran-2-ylmethyl)-amino]-propoxy}-8-[(1R)-1,2-dimethylpropyl]-1,6a,8,10a-tetramethyl-6-oxo-1,3,4,6,6a,7,8,9,10,10a,10b,11, 12,12a-tetradecahydro-2H-1,4a-(methanooxymethano)chrysene-7-carboxylic acid]	343
CCCN(CCC)C(CC)COC1C(OC(C)=O)CC23COCC1(C)C2CCC1C3=CC(=O)C2(C)C(C(=O)O)C(C)(C(C)C(C)C)CCC12C [Example 81, (1S, 2R, 3R, 4aR, 6aS, 7R, 8R, 10aR, 10bR, 12aR)-3-(acetyloxy)-2-(2-dipropylaminobutoxy)-8-[(1R)-1,2-dimethylpropyl]-1,6a,8, 10a-tetramethyl-6-oxo-1,3,4,6,6a,7,8,9,10,10a, 10b,11,12,12a-tetra decahydro-2H-1,4a-(methanooxymethano) chrysene-7-carboxylic acid]	497
CC(=O)O[C@@H]1C[C@@]23COC[C@](C)([C@@H]2CC[C@H]2C3=CC(=O)[C@@]3(C)[C@H](C(=O)O)[C@@](C)([C@H](C)C(C)C)CC[C@]23C)[C@H]1OCC(C(C)C)N1CCCCC1 (stereo partly drawn) [Example 89, (1S, 2R, 3R, 4aR, 6aS, 7R, 8R, 10aR, 10bR, 12aR)-3-(acetyloxy)-2-(3-methyl-2-piperidin-1-ylbutoxy)-8-[(1R)-1,2-dimethylpropyl]-1,6a,8, 10a-tetramethyl-6-oxo-1,3,4,6,6a,7,8,9,10,10a, 10b,11,12,12a-tetra decahydro-2H-1,4a-(methanooxymethano) chrysene-7-carboxylic acid]	166
CC(=O)O[C@@H]1C[C@@]23COC[C@](C)([C@@H]2CC[C@H]2C3=CC(=O)[C@@]3(C)[C@H](C(=O)O)[C@@](C)([C@H](C)C(C)C)CC[C@]23C)[C@H]1OCCCN [Example 109, (1S, 2R, 3R, 4aR, 6aS, 7R, 8R, 10aR, 10bR, 12aR)-3-(acetyloxy)-2-(3-aminopropoxy)-8-[(1R)-1,2-dimethylpropyl]-1,6a,8,10a-tetramethyl-6-oxo-1,3,4,6,6a,7,8,9, 10,10a,10b,11,12,12a-tetradeca hydro-2H-1,4a-(methanooxymethano) chrysene-7-carboxylic acid]	155
CC(=O)O[C@@H]1C[C@@]23COC[C@@](C)([C@@H]2CC[C@H]2C3=CC(=O)[C@@]3(C)[C@H](C(=O)O)[C@@](C)([C@H](C)C(C)C)CC[C@]23C)[C@H]1OCC(C)(C)N(C)C [Example 114, (1S,2R,3R,4aR,6aS,7R,8R,10aR,10bR,12aR)-3-(acetyloxy)-2-(2-diamino-2-methylpropoxy)-8-[(1R)-1,2-dimethylpropyl]-1,6a,8,10a-tetramethyl-6-oxo-1,3,4,6,6a,7,8,9,10,10a,10b,11,12,12a-tetradecahydro-2H-1,4a-(methanooxymethano)chrysene-7-carboxylic acid]	80.8
CCC(C)(CO[C@H]1[C@H](OC(C)=O)C[C@@]23COC[C@]1(C)[C@@H]2CC[C@H]1C3=CC(=O)[C@@]2(C)[C@H](C(=O)O)[C@@](C)([C@H](C)C(C)C)CC[C@]12C)N(C)C (stereo partly drawn) [Example 128, (1S, 2R, 3R, 4aR, 6aS, 7R, 8R, 10aR, 10bR, 12aR)-3-(acetyloxy)-2-(2-dimethylamino-2-methylbutyloxy)-8-[(1R)-1,2-dimethylpropyl]-1,6a,8,10a-tetramethyl-6-oxo-1,3,4,6,6a,7,8,9,10, 10a,10b,11,12,12a-tetradecahydro-2H-1,4a-(methanooxymethano)chrysene-7-carboxylic acid]	91.2
CC(=O)O[C@@H]1C[C@@]23COC[C@@](C)([C@@H]2CC[C@H]2C3=CC(=O)[C@@]3(C)[C@H](C(=O)O)[C@@](C)([C@H](C)C(C)C)CC[C@]23C)[C@H]1OC[C@@](C)(N)C(C)C [Example 148, (1S,2R,3R,4aR,6aS,7R,8R,10aR,10bR,12aR)-3-acetoxy-2-[[(2S)-2-amino-2,3-dimethylbutyl]oxy]-8-[(1R)-1,2-dimethylpropyl]-1,6a,8,10a-tetramethyl-6-oxo-1,3,4,6,6a,7,8,9,10,10a,10b,11,12,12a-tetradecahydro-2H-1,4a-(methanooxymethano)chrysene-7-carboxylic acid]	20.2
CN[C@](C)(CO[C@H]1[C@H](OC(C)=O)C[C@@]23COC[C@@]1(C)[C@@H]2CC[C@H]1C3=CC(=O)[C@@]2(C)[C@H](C(=O)O)[C@@](C)([C@H](C)C(C)C)CC[C@]12C)C(C)C [Example 149, (1S,2R,3R,4aR,6aS,7R,8R,10aR,10bR,12aR)-3-(acetyloxy)-2-[(2S)-2-methylamino-2,3-dimethylbutyloxy]-8-[(1R)-1,2-dimethylpropyl]-1,6a,8,10a-tetramethyl-6-oxo-1,3,4,6,6a,7,8,9,10,10a,10b,11,12,12a-tetradecahydro-2H-1,4a-(methanooxymethano)chrysene-7-carboxylic acid]	19.8
CC(=O)O[C@@H]1C[C@@]23COC[C@@](C)([C@@H]2CC[C@H]2C3=CC(=O)[C@@]3(C)[C@H](C(=O)O)[C@@](C)([C@H](C)C(C)C)CC[C@]23C)[C@H]1OC[C@](C)(C(C)C)N(C)C [Example 150, (1S,2R,3R,4aR,6aS,7R,8R,10aR,10bR,12aR)-3-(acetyloxy)-2-[(2S)-2-dimethylamino-2,3-dimethylbutyloxy]-8-[(1R)-1,2-dimethylpropyl]-1,6a,8,10a-tetramethyl-6-oxo-1,3,4,6,6a,7,8,9,10,10a,10b,11,12,12a-tetradecahydro-2H-1,4a-(methanooxymethano)chrysene-7-carboxylic acid]	20.8

Reference: US7863465B2, “Antifungal agents” (Merck Sharp & Dohme Corp., priority 2006, dated 2011)
